The source of these data is patent US20260285834A1, “SUBSTITUTED PYRIDINE DERIVATIVES AS SARM1 INHIBITORS” (Nura Bio, Inc., priority 2022, published 2026).

Counter-ions that a name gives are not always drawn. Like-named read-outs stand apart in the source and are kept apart here.

The experiment has as its target T1, human SARM1(50-724) (Homo sapiens, UniProt Q6SZW1).
T1 construct: 40 nM human SARM1(50-724)
T1 sequence (Q6SZW1 50-724): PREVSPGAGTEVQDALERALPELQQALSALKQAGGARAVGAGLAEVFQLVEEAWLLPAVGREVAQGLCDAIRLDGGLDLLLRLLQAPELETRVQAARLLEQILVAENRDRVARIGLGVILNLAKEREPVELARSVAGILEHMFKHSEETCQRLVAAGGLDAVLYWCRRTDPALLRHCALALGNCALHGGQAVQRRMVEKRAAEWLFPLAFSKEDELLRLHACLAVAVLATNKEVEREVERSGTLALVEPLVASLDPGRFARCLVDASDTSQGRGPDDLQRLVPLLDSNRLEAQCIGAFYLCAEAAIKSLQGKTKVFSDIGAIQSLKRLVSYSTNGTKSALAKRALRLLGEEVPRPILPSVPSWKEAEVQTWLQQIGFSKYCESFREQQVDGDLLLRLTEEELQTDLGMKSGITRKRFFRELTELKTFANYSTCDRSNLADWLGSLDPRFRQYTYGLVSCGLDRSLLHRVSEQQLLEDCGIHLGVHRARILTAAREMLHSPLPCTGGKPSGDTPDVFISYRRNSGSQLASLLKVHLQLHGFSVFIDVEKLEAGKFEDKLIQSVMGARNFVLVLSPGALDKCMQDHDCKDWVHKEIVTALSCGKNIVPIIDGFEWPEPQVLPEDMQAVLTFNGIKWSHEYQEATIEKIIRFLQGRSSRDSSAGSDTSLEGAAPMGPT
The experiment in a line: SARM1 biological assay: HPLC measurement of NAD and NAM peak areas. It is filed as biochemical. As to the method: Each reaction was run at a volume of 20 μL containing 50 μM compound (dissolved in DMSO; final concentration of DMSO is 1% v/v), 40 nM human SARM1(50-724), 0.3 mM NMN, 20 μM NAD, 1 mM TCEP, 25 mM HEPES pH 7.4, 10 mM KCl and 10 mM MgCl2. The reaction was incubated at room temperature for 60 minutes and quenched with 20 μL of 0.4% formic acid. The samples were run on Agilent HPLC 1260 Infinity II with Synergi 2.5 μM Fusion-RP 100 Å (100×3.0 mm) LC column from Phenomenex. Total run time for each sample was 4 minutes. The run was isocratic with 1.5% methanol in 40 mM ammonium acetate pH 6.0. Samples were run at a flow rate of 0.8 mL/min at 55° C. Peak areas of NAD and NAM were determined using OpenLAB CDS (Chem Station edition) software. For dose-response, the compound was diluted serially 1:3 in DMSO and added to the reaction starting at a final compound concentration of 100 μM in 1% DMSO.

`CC(c1ccncc1)c1c[nH]c(C(=O)C(F)(F)F)n1` (racemic) [Example 22, 2,2,2-Trifluoro-1-(4-(pyridine-4-yl)ethyl)-1H-imidazol-2-yl)ethan-1-one hydrochloride]: the IC50 – broadly, the concentration that gives 50% inhibition – is under 1000 nM.

For `FC(F)(F)[C@H]1CCO[C@H]1c1nc(Cc2ccncc2)c[nH]1` (relative stereo) [Example 27, (cis)-4-((2-(3-(trifluoromethyl)tetrahydrofuran-2-yl)-1H-imidazol-4-yl)methyl)pyridine], the IC50 lay within 10000 to 100000 nM.

Turning to `FC1(F)CC1c1nc(Cc2ccncc2)c[nH]1` (single isomer, unassigned) [Example 5A], the IC50 was under 1000 nM.

`FC1(F)CC1c1nc(Cc2ccncc2)c[nH]1` (single isomer, unassigned) [Example 5B]: the IC50 (read-out: Average IC50, 40 nM human SARM1(50-724), 0.3 mM NMN, 20 μM NAD, 60 min at room temperature, dose-response 1:3 serial dilution from 100 μM) was under 1000 nM.

Consider `C[C@]1(c2nc(Cc3ccncc3)c[nH]2)CC1(F)F` (single isomer, unassigned) [Example 10A], for which the IC50 is under 1000 nM.

For `C[C@@]1(c2nc(Cc3ccncc3)c[nH]2)CC1(F)F` (single isomer, unassigned) [Example 10B], the IC50 was under 1000 nM.

For the compound `FC1(F)CC[C@H](c2nc(Cc3ccncc3)c[nH]2)C1` (single isomer, unassigned) [Example 11A], the IC50 was under 1000 nM.

Turning to `FC1(F)CC[C@@H](c2nc(Cc3ccncc3)c[nH]2)C1` (single isomer, unassigned) [Example 11B], the IC50 fell in the range of 1000 to 10000 nM.

`FC1(F)C[C@@H]1Cc1nc(Cc2ccncc2)c[nH]1` (single isomer, unassigned) [Example 21A]: the concentration for half-maximal inhibition (IC50) is under 1000 nM.

As for `FC1(F)C[C@H]1Cc1nc(Cc2ccncc2)c[nH]1` (single isomer, unassigned) [Example 21B], the IC50 was under 1000 nM.

For the compound `C[C@H](c1ccncc1)c1c[nH]c(C(=O)C(F)(F)F)n1` (single isomer, unassigned) [Example 23A, hydrochloride], the IC50 was under 1000 nM.

For `C[C@@H](c1ccncc1)c1c[nH]c(C(=O)C(F)(F)F)n1` (single isomer, unassigned) [Example 23B, hydrochloride], the IC50 lay within 1000 to 10000 nM.

For the compound `FC(F)(F)[C@H]1C[C@@H](c2nc(Cc3ccncc3)c[nH]2)C1` (single isomer, unassigned) [Example 31A, (cis)-4-((2-(3-(Trifluoromethyl)cyclobutyl)-1H-imidazol-4-yl)methyl)pyridine], the IC50 was 1000 to 10000 nM.

For the compound `FC(F)(F)[C@H]1C[C@H](c2nc(Cc3ccncc3)c[nH]2)C1` (single isomer, unassigned) [Example 31B, (trans)-4-((2-(3-(Trifluoromethyl)cyclobutyl)-1H-imidazol-4-yl)methyl)pyridine], the IC50 lay in the range of 1000 to 10000 nM.

On to `ClC1(Cl)C[C@@H]1c1nc(Cc2ccncc2)c[nH]1` (single isomer, unassigned) [Example 33A], for which the IC50 is under 1000 nM.

`ClC1(Cl)C[C@H]1c1nc(Cc2ccncc2)c[nH]1` (single isomer, unassigned) [Example 33B]: the IC50 was under 1000 nM.

With `F[C@@]1(Cl)C[C@@H]1c1nc(Cc2ccncc2)c[nH]1` (single isomer, unassigned) [Example 39A], the IC50 is under 1000 nM.

For `F[C@]1(Cl)C[C@@H]1c1nc(Cc2ccncc2)c[nH]1` (single isomer, unassigned) [Example 39B], the IC50 was under 1000 nM.

For `F[C@@]1(Cl)C[C@H]1c1nc(Cc2ccncc2)c[nH]1` (single isomer, unassigned) [Example 39C], the IC50 was under 1000 nM.

With `F[C@]1(Cl)C[C@H]1c1nc(Cc2ccncc2)c[nH]1` (single isomer, unassigned) [Example 39D], the IC50 was under 1000 nM.

For the compound `FC1(F)CCN(c2nc(Cc3ccncc3)c[nH]2)CC1` [Example 1], the IC50 was in the range of 1000 to 10000 nM.

As for `FC1(F)CN(c2nc(Cc3ccncc3)c[nH]2)C1` [Example 2, 4-((2-(3,3-Difluoroazetidin-1-yl)-1H-imidazol-4-yl)methyl)pyridine], the IC50 lay within 1000 to 10000 nM.

As to `FC1(F)CCN(c2nc(Cc3ccncc3)c[nH]2)C1` [Example 3], the IC50 was 1000 to 10000 nM.

Turning to `Fc1cnccc1Cc1c[nH]c(C2CC(F)(F)C2)n1` [Example 4, 4-((2-(3,3-Difluorocyclobutyl)-1H-imidazol-4-yl)methyl)-3-fluoropyridine], the IC50 is under 1000 nM.

As to `Fc1cnccc1Cc1coc(C2CC(F)(F)C2)n1` [Example 4A, 2-(3,3-Difluorocyclobutyl)-4-((3-fluoropyridin-4-yl)methyl)oxazole], the IC50 fell in the range of 10000 to 100000 nM.

For the compound `ClC1(Cl)CC1c1nc(Cc2ccncc2)c[nH]1` (stereo not drawn) [Example 6, 4-((2-(2,2-Dichlorocyclopropyl)-1H-imidazol-4-yl)methyl)pyridine], the IC50 was under 1000 nM.

In the case of `FC1(F)CN(Cc2nc(Cc3ccncc3)c[nH]2)C1` [Example 7], the IC50 was 1000 to 10000 nM.

For `OC1(C(F)(F)F)CC(c2nc(Cc3ccncc3)c[nH]2)C1` (stereo not drawn) [Example 8, 3-(4-(Pyridin-4-ylmethyl)-1H-imidazol-2-yl)-1-(trifluoromethyl)cyclobutan-1-ol], the IC50 was in the range of 1000 to 10000 nM.

Take `CC1(F)CC(c2nc(Cc3ccncc3)c[nH]2)C1` (stereo not drawn) [Example 9, 4-((2-(3-Fluoro-3-methylcyclobutyl)-1H-imidazol-4-yl)methyl)pyridine]: the IC50 is under 1000 nM.

On to `OC1(c2nc(Cc3ccncc3)c[nH]2)CCC(F)(F)CC1` [Example 12], for which the IC50 was 1000 to 10000 nM.

Turning to `FC1(F)CCC(c2nc(Cc3ccncc3)c[nH]2)CC1` [Example 13, 4-((2-(4,4-Difluorocyclohexyl)-1H-imidazol-4-yl)methyl)pyridine], the IC50 is 1000 to 10000 nM.

Take `Fc1cnccc1Cc1c[nH]c(C2CC2(F)F)n1` (stereo not drawn) [Example 14, 4-((2-(2,2-Difluorocyclopropyl)-1H-imidazol-4-yl)methyl)-3-fluoropyridine]: the IC50 is under 1000 nM.

For `FC1(F)CC(c2nc(Cc3ccncc3)c[nH]2)C1` [Example 15A, 4-((2-(3,3-Difluorocyclobutyl)-1H-imidazol-4-yl)methyl)pyridine], the IC50 was under 1000 nM.

Consider `FC1(F)CC(c2nc(Cc3ccncc3)co2)C1` [Example 15B, 2-(3,3-Difluorocyclobutyl)-4-(pyridin-4-ylmethyl)oxazole], for which the IC50 fell in the range of 10000 to 100000 nM.

With `FC(F)(F)C1(c2nc(Cc3ccncc3)c[nH]2)CC1` [Example 16], the IC50 was in the range of 1000 to 10000 nM.

`Fc1cnccc1Cc1c[nH]c(C2CCC(F)(F)CC2)n1` [Example 17A, 4-((2-(4,4-Difluorocyclohexyl)-1H-imidazol-4-yl)methyl)-3-fluoropyridine]: the IC50 was 1000 to 10000 nM.

With `Fc1cnccc1Cc1coc(C2CCC(F)(F)CC2)n1` [Example 17B, 2-(4,4-Difluorocyclohexyl)-4-((3-fluoropyridin-4-yl)methyl)oxazole], the IC50 lay in the range of 10000 to 100000 nM.

For `Fc1cnccc1Cc1c[nH]c(C2CCC(F)(F)C2)n1` (stereo not drawn) [Example 18A, 4-((2-(3,3-Difluorocyclopentyl)-1H-imidazol-4-yl)methyl)-3-fluoropyridine], the IC50 fell in the range of 1000 to 10000 nM.

`Fc1cnccc1Cc1coc(C2CCC(F)(F)C2)n1` (stereo not drawn) [Example 18B, 2-(3,3-Difluorocyclopentyl)-4-((3-fluoropyridin-4-yl)methyl)oxazole]: the IC50 lay within 10000 to 100000 nM.

For `ClC1(Cl)CC(c2nc(Cc3ccncc3)c[nH]2)C1` [Example 19A, 4-((2-(3,3-Dichlorocyclobutyl)-1H-imidazol-4-yl)methyl)pyridine], the IC50 was under 1000 nM.

Turning to `ClC1(Cl)CC(c2nc(Cc3ccncc3)co2)C1` [Example 19B, 2-(3,3-Dichlorocyclobutyl)-4-(pyridine-4-ylmethyl)oxazole], the IC50 lay within 1000 to 10000 nM.

`FC1(F)CC1Cc1nc(Cc2ccncc2)co1` (stereo not drawn) [Example 20B, 2-((2,2-Difluorocyclopropyl)methyl)-4-(pyridine-4ylmethyl)oxazole]: the IC50 was in the range of 10000 to 100000 nM.

Take `FC1(F)CC(Cc2nc(Cc3ccncc3)c[nH]2)C1` [Example 24, 4-((2-((3,3-Difluorocyclobutyl)methyl)-1H-imidazol-4-yl)methyl)pyridine]: the IC50 lay within 1000 to 10000 nM.

Regarding `FC(F)(F)C1(Cc2nc(Cc3ccncc3)c[nH]2)CC1` [Example 25], the IC50 is under 1000 nM.

As to `FC(F)(F)C1CC1c1nc(Cc2ccncc2)c[nH]1` (stereo not drawn) [Example 26, 4-((2-(2-(Trifluoromethyl)cyclopropyl)-1H-imidazol-4-yl)methyl)pyridine], the IC50 lay in the range of 1000 to 10000 nM.
